This is an account of results in US8663703B2, “Drug microparticles, processes of preparing them and a drug delivery vehicle comprising them” (Teva Pharmaceutical Industries, Ltd., priority 2002, dated 2014).

This data set is described as follows: Solubility of selected drugs in menthol melt. It is filed as physicochemical. Here is the method: The following general procedure was repeated with several drugs with menthol carrier.
Menthol (10 grams) was melted on a stirring hot plate with magnetic stirring, then heated to the desired temperature indicated in Table 1. The desired drug was added in small increments (0.1 grams) and stirred to obtain a clear solution. The desired drug was added in increments until no more drug dissolved in the menthol.

`CC[C@H]1OC(=O)[C@H](C)[C@@H](O[C@H]2C[C@@](C)(OC)[C@@H](O)[C@H](C)O2)[C@H](C)[C@@H](O[C@@H]2O[C@H](C)C[C@H](N(C)C)[C@H]2O)[C@](C)(O)C[C@@H](C)CN(C)[C@H](C)[C@@H](O)[C@]1(C)O` [Azithromycin]: the Solubility in menthol (menthol melt, 63 °C) was 40.0 % w/w. For `CCC(C)n1ncn(-c2ccc(N3CCN(c4ccc(OCC5COC(Cn6cncn6)(c6ccc(Cl)cc6Cl)O5)cc4)CC3)cc2)c1=O` (stereo not shown) [Itraconazole], the Solubility in menthol turned out to be 1% (in menthol at 60° C. (text of Example 6)) and 1.0 % w/w (menthol melt, 61 °C).

Where the note is “menthol melt, 43 °C”, `O=C(O)c1ccccc1O` [Salicylic acid] registered a Solubility in menthol of 16.0 % w/w.
